Literature values, collected in patent US8926084B2, “Polymerizable ink composition, ink cartridge containing the same, and inkjet printer” (Ricoh Company, Ltd., priority 2012, dated 2015).
Read-outs that look alike come from different tables or passages of the source.

Conditions: material evaluated as no skin sensitization or negative in MSDS has an SI value less than 3, cited from earlier work

C=COCCOCCOCCOC=C [Triethylene glycol divinylether]
skin sensitization as mentioned in MSDS (listed as triethylene glycol divinyl ether): free from skin sensitization

C=CC(=O)OCC(CC)(COC(=O)C=C)COC(=O)C=C [Trimethylol propane triacrylate (M-309), Trimethylol propane triacrylate]
skin sensitization as mentioned in MSDS: Toagosei Company, Limited, skin sensitization causing
